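Values below derive from 48-hour exposures of cells grown in 96-well plates, with endpoints linearly interpolated between the two concentrations bracketing the appropriate inhibition level. GI50: concentration for 50% inhibition of growth.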 The source made the active and inactive calls. Cut-off read from the data, not from the text of the source: active = GI50 up to about 1.1 µM and inactive = higher.
What was measured:
Test in all cases: NCI tumour cell line growth inhibition, 48 h
[1] = tested on: ACHN
[2] = tested on: OVCAR-5
[3] = tested on: SW-620
[4] = tested on: SF-268
[5] = tested on: K562
[6] = tested on: CCRF-CEM
[7] = tested on: SK-OV-3
[8] = tested on: NCI-H460
[9] = tested on: IGROV-1
[10] = tested on: M19-MEL
[11] = tested on: SNB-19
[12] = tested on: SN12C
[13] = tested on: TK-10
[14] = tested on: OVCAR-3
[15] = tested on: HT-29
[16] = tested on: KM-20L2
[17] = tested on: A498
[18] = tested on: RXF 393
[19] = tested on: SNB-75
[20] = tested on: HCT-116
[21] = tested on: SK-MEL-2
[22] = tested on: EKVX
[23] = tested on: 786-0
[24] = tested on: COLO 205
[25] = tested on: A549
[26] = tested on: OVCAR-4
[27] = tested on: SNB-78
[28] = tested on: SR
[29] = tested on: Malme-3M
[30] = tested on: SK-MEL-28
[31] = tested on: UACC-62
[32] = tested on: HCC 2998
[33] = tested on: DLD-1
[34] = tested on: KM12
[35] = tested on: NCI-H522
[36] = tested on: LOX IMVI
[37] = tested on: UO-31
[38] = tested on: DMS-273
[39] = tested on: HCT-15
[40] = tested on: MOLT-4
[41] = tested on: SF-539
[42] = tested on: LXFL 529
[43] = tested on: HOP-18
[44] = tested on: U-251
[45] = tested on: HL-60
[46] = tested on: OVCAR-8
[47] = tested on: HOP-62
[48] = tested on: SK-MEL-5
[49] = tested on: NCI-H226
[50] = tested on: NCI-H23
[51] = tested on: M14
[52] = tested on: CAKI-1
[53] = tested on: MCF7
[54] = tested on: HOP-92
[55] = tested on: RPMI-8226
[56] = tested on: XF498
[57] = tested on: SF-295
[58] = tested on: UACC-257
[59] = tested on: NCI/ADR-RES

Q: For `CSc1nc(-c2ccccc2)nc(N2CCOCC2)[s+]1`, which GI50 [1] is on record?
A: > 100 µM (inactive)

Q: What about the GI50 [2] of the same molecule?
A: > 100 µM (inactive)

Q: And the GI50 [3]?
A: > 100 µM (inactive)

Q: What about the GI50 [4] of the same molecule?
A: > 100 µM (inactive)

Q: What about the GI50 [5] of the same molecule?
A: 37.6 µM (inactive)

Q: What about the GI50 [6] of the same molecule?
A: 22.3 µM (inactive)

Q: What about the GI50 [7] of the same molecule?
A: > 100 µM (inactive)

Q: What about the GI50 [8] of the same molecule?
A: 39 µM (inactive)

Q: And the GI50 [9]?
A: > 100 µM (inactive)

Q: And the GI50 [10]?
A: > 100 µM (inactive)

Q: And the GI50 [11]?
A: > 100 µM (inactive)

Q: And the GI50 [12]?
A: > 100 µM (inactive)

Q: And the GI50 [13]?
A: > 100 µM (inactive)

Q: And the GI50 [14]?
A: > 100 µM (inactive)

Q: What about the GI50 [15] of the same molecule?
A: 53.1 µM (inactive)

Q: What about the GI50 [16] of the same molecule?
A: > 100 µM (inactive)

Q: And the GI50 [17]?
A: > 100 µM (inactive)

Q: What about the GI50 [18] of the same molecule?
A: 21.3 µM (inactive)

Q: What about the GI50 [19] of the same molecule?
A: > 100 µM (inactive)

Q: And the GI50 [20]?
A: > 100 µM (inactive)

Q: What about the GI50 [21] of the same molecule?
A: > 100 µM (inactive)

Q: And the GI50 [22]?
A: > 100 µM (inactive)

Q: What about the GI50 [23] of the same molecule?
A: > 100 µM (inactive)

Q: What about the GI50 [24] of the same molecule?
A: 37 µM (inactive)

Q: And the GI50 [25]?
A: > 100 µM (inactive)

Q: And the GI50 [26]?
A: > 100 µM (inactive)

Q: What about the GI50 [27] of the same molecule?
A: > 100 µM (inactive)

Q: And the GI50 [28]?
A: 16.6 µM (inactive)

Q: What about the GI50 [29] of the same molecule?
A: > 100 µM (inactive)

Q: And the GI50 [30]?
A: > 100 µM (inactive)

Q: What about the GI50 [31] of the same molecule?
A: 28.6 µM (inactive)

Q: What about the GI50 [32] of the same molecule?
A: > 100 µM (inactive)

Q: And the GI50 [33]?
A: 91.8 µM (inactive)

Q: And the GI50 [34]?
A: > 100 µM (inactive)

Q: What about the GI50 [35] of the same molecule?
A: 32.8 µM (inactive)

Q: And the GI50 [36]?
A: 43 µM (inactive)

Q: What about the GI50 [37] of the same molecule?
A: > 100 µM (inactive)

Q: What about the GI50 [38] of the same molecule?
A: > 100 µM (inactive)

Q: What about the GI50 [39] of the same molecule?
A: 37.8 µM

Q: And the GI50 [40]?
A: 26.8 µM (inactive)

Q: And the GI50 [41]?
A: > 100 µM (inactive)

Q: And the GI50 [42]?
A: 37.3 µM (inactive)

Q: And the GI50 [43]?
A: > 100 µM (inactive)

Q: What about the GI50 [44] of the same molecule?
A: 92.7 µM (inactive)

Q: What about the GI50 [45] of the same molecule?
A: 42.8 µM (inactive)

Q: And the GI50 [46]?
A: > 100 µM (inactive)

Q: And the GI50 [47]?
A: > 100 µM (inactive)

Q: What about the GI50 [48] of the same molecule?
A: > 100 µM (inactive)

Q: And the GI50 [49]?
A: > 100 µM (inactive)

Q: And the GI50 [50]?
A: > 100 µM (inactive)

Q: What about the GI50 [51] of the same molecule?
A: > 100 µM (inactive)

Q: What does the source list for `C[C@]12CC[C@H](O)C=C1CC[C@@H]1[C@@H]2CC[C@]2(C)C(c3ccc(=O)oc3)CC[C@]12O` (stereo partly specified)?
A: GI50 [2]: 0.108 µM (active); GI50 [3]: 0.0149 µM (active); GI50 [4]: 0.0125 µM (active); GI50 [52]: 0.0151 µM (active); GI50 [5]: 0.0125 µM (active); GI50 [6]: 0.0125 µM (active); GI50 [7]: 0.0294 µM (active); GI50 [8]: 0.0132 µM (active); GI50 [9]: 0.0141 µM (active); GI50 [10]: 0.0129 µM (active); GI50 [11]: 0.0327 µM (active); GI50 [12]: 0.0125 µM (active); GI50 [14]: 0.0125 µM (active); GI50 [15]: 0.035 µM (active); GI50 [16]: 0.0244 µM (active); GI50 [17]: 0.0125 µM (active); GI50 [19]: 0.0156 µM (active); GI50 [53]: 0.015 µM (active); GI50 [54]: 0.014 µM (active); GI50 [20]: 0.0125 µM (active); GI50 [21]: 0.0176 µM (active); GI50 [22]: 0.0311 µM (active); GI50 [55]: 0.0125 µM (active); GI50 [24]: 0.033 µM (active); GI50 [25]: 0.0125 µM (active); GI50 [26]: 0.0146 µM (active); GI50 [27]: 0.0163 µM (active); GI50 [29]: 0.0135 µM (active); GI50 [56]: 0.0184 µM (active); GI50 [30]: 0.0266 µM (active); GI50 [57]: 0.0134 µM (active); GI50 [31]: 0.0154 µM (active); GI50 [32]: 0.0372 µM (active); GI50 [58]: 0.0181 µM (active); GI50 [33]: 0.0174 µM (active); GI50 [59]: 0.0328 µM (active); GI50 [34]: 0.0336 µM (active); GI50 [35]: 0.0125 µM (active); GI50 [36]: 0.0125 µM (active); GI50 [37]: 0.0141 µM (active); GI50 [38]: 0.0125 µM (active); GI50 [39]: 0.0175 µM; GI50 [41]: 0.0125 µM (active); GI50 [43]: 0.014 µM (active); GI50 [44]: 0.0153 µM (active); GI50 [46]: 0.015 µM (active); GI50 [47]: 0.0125 µM (active); GI50 [48]: 0.0125 µM (active); GI50 [49]: 0.0375 µM (active); GI50 [50]: 0.0125 µM (active)

Source: ChEMBL document CHEMBL1201862, “PubChem BioAssay data set” (2004)
